The values below come from patent US6818654B2, “Antibacterial compounds” (Abbott Laboratories, priority 2002, dated 2004).

Converted amounts (≈) assume the structure as drawn.

Assay [1] relates to Quinoline-Succeptable Streptococcus pneumoniae ATCC 6303. Kind of assay: MIC, agar dilution, quinoline-susceptible strain (code AA). Format: cell-based. The following applies: ATCC6303, 35-37° C., 20-24 hours. From the text:
Antibacterial activity of the compounds […] Committee for Clinical Laboratory Standards (1997), “Methods for dilution antimicrobial susceptibility tests for bacteria that grow aerobically,” approved standard M7-A4 (Wayne, Pa., USA). All strains tested were from the Abbott Laboratories culture collection and were either clinical isolates or reference strains obtained from the American Type Culture Collection (Manassas, Va., USA).
A general note: In agar dilution the substance is mixed into plates at graded concentrations.

In assay [2] the test system is Quinoline-Resistant Streptococcus pneumoniae 7257. Kind of assay: MIC, agar dilution, quinoline-resistant strain (code BB). Format: cell-based. The following applies: 35-37° C., 20-24 hours.
For assay [3], the target named is bacterial protein synthesis. In words: Translation assay, firefly luciferase reporter system with S30 Streptococcus pneumoniae extract. Format: biochemical. The following applies: S30 extract from quinoline-succeptable Streptococcus pneumoniae ATCC 46919; luciferase mRNA; read-out: IC50, concentration causing 50% inhibition of bacterial protein synthesis. The method, then:
Bacterial protein synthesis inhibitory activity of the compounds and the aformentioned commercially-available antibacterials was determined by translation assays performed using the firefly luciferase reporter system described by Murray et al., (2001), “Staphylococcus aureus Cell Extract Transcription-Translation Assay: Firefly Luciferase Reporter System for Evaluating Protein Translation Inhibitors,” Antimicrob. Agents Chemother. 45(6): 1900-1904, replacing the Staphylococcus aureus S30 extract described therein with S30 Streptococcus pneumoniae extract from quinoline-succeptable Streptococcus pneumoniae ATCC 46919, and replacing plasmid coding for the luciferase gene with mRNA (encoding produced by in vitro transcription from the plasmid pAS10rbs3) which encoded the luciferase gene with an upstream Streptococcus pneumoniae promoter and Shine-Dalgarno site.

With `CCn1cc(C(=O)O)c(=O)c2cc(F)c(N3CCNCC3)cc21` [Norfloxacin], the MIC (commonly the least concentration at which growth counts as inhibited) in assay [1] is 1 µg/mL (≈ 3.13 µM); in assay [2], 32 µg/mL (≈ 100 µM).

In the case of `N[C@@H]1[C@H]2CN(c3nc4c(cc3F)c(=O)c(C(=O)O)cn4-c3ccc(F)cc3F)C[C@@H]12` [Trovafloxacin], the MIC in assay [1] is 0.06 µg/mL (≈ 0.144 µM); in assay [2], 4 µg/mL (≈ 9.61 µM).

As for `CC(=O)NC[C@H]1CN(c2ccc(N3CCOCC3)c(F)c2)C(=O)O1` [Linezolid], the figures for the MIC in assay [1] and in assay [2] were 2 µg/mL (≈ 5.93 µM) and 0.5 µg/mL (≈ 1.48 µM), respectively. For the same compound, the IC50 in assay [3] is ~3000 nM.
